This note sets out measurements from patent US9215877B2, “Compositions including a vacancy-engineered(VE)-ZnO nanocomposite, methods of making a composition , method of using a composition” (priority 2014, dated 2015).

In this experiment the test system is E. coli. Briefly: Minimum inhibitory concentration (MIC) against E. coli. The class given is cell-based. As to conditions: Escherichia coli, read-out: MIC (μg/mL) in metallic Zn or Cu.

On to `O=C([O-])c1ccccc1O.[Na+]` [Capping Agent, sodium salicylate], for which the MIC stood at 3000 µg/mL.
